The values that follow come from US20100297025A1, “Novel compositions magnetic particles covered with gem-bisphosphonate derivatives” (Guerbet., priority 2002, published 2010).

For assay [1], the target named is T1, folate binding protein (FBP) (Bos taurus, UniProt P02702).
T1 construct: purchased Sigma F-0504
In words: Affinity for Folate Binding Protein (FBP) by the BiaCore technique. To be noted: immobilized FBP. How it is done: 1/ Assay for Affinity of Example 17 for Folate Binding Protein (FBP) by the BiaCore Technique
PGM buffer: 100 mM KH2PO4, pH 7, 10% glycerol and 4 mM β-mercaptoethanol.
The immobilization of the FBP was carried out at 1 mg/ml in the PGM buffer according to the protocols recommended by BIAcore for coupling to amines. After this, the remaining active carboxylated groups are saturated with 1M of ethanolamine pH=8. The amount of FBP attached corresponds approximately to 1.5 ng/mm^2.
Example 17 was at a concentration of 0.170 mol/L of iron, which corresponds to 1.9×10^−5 mol of particles/L (considering a crystal of 7.5 nm, i.e. 8900 atoms of iron/particle).
The attachment of the folate was followed at four different concentrations (125, 250, 500 and 1000 μM) whereas that of example 17 was carried out at […] and at 10 nM (expressed as mol of particle/L). The association and the dissociation were studied with a flow at 25 μl/min. The association and dissociation phases are 5 minutes.
For orientation: Surface plasmon resonance follows binding to a sensor surface in real time, without labels.

Assay [2] deals with T2, human MMP-3 (Homo sapiens, UniProt P08254).
T2 construct: host or cells: sF9 (insect) cell line
Nature of the assay: Inhibitory effect on human MMP-3 activity, fluorimetry. The settings on record: MMP-3, reference product. The assay is classed as biochemical.
Description: More precisely, the test product, or the reference product or water, was added to a buffer solution, at pH=6, containing 6 nM of MMP-3. The fluorescence of this medium was evaluated at λex=340 nm and λem=405 nm by means of a plate reader (GeminiXS, Molecular Devices), after preincubation for 30 min at 37° C. (t=0). This measurement at t=0 serves to verify any possible interference of a product with the fluorescent detection. The enzyme reaction was then initiated by adding 10 μm of the substrate NFF-2. After incubation for 90 min at 37° C., the fluorescence was again evaluated under the same conditions as previously (t=90 min). The enzyme activity was then determined by subtracting the signal measured at t=0 from the signal measured at t=90 min.
The final result is expressed as percentage inhibition of the enzyme activity.

Assay [3] addresses αvβ5 (Homo sapiens, UniProt P06756+P18084). To be noted: cited from earlier work.
The target in assay [4] is α5β1 (Homo sapiens, UniProt P05556+P08648). To be noted: cited from earlier work.
Sequence of α5β1 (P08648 42-1049): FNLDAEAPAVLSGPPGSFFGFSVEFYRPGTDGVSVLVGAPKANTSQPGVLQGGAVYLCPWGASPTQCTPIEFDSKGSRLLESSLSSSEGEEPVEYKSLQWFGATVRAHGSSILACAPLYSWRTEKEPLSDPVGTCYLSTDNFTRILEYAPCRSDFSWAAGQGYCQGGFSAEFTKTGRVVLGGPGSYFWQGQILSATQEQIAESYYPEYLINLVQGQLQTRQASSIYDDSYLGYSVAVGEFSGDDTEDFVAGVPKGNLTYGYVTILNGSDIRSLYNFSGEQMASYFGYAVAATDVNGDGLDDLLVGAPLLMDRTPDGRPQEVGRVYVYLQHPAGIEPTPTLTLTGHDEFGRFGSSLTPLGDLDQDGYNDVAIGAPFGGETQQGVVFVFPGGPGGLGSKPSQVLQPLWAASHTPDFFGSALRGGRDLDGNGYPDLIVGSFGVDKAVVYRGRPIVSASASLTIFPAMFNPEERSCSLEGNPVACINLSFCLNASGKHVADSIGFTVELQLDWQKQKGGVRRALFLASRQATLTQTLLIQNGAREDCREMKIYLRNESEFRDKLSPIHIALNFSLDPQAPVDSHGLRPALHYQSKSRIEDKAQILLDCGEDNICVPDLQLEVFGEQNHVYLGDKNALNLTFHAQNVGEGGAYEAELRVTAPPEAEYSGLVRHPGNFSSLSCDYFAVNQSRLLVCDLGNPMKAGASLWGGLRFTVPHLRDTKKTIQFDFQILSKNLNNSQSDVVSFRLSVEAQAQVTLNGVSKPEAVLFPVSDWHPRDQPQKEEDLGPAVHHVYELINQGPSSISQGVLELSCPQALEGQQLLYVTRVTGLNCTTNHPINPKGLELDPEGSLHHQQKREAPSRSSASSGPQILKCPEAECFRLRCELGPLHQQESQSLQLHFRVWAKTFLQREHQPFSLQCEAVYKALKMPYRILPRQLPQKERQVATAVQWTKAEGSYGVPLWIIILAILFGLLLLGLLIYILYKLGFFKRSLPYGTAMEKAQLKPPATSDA
Sequence of α5β1 (P05556 21-798): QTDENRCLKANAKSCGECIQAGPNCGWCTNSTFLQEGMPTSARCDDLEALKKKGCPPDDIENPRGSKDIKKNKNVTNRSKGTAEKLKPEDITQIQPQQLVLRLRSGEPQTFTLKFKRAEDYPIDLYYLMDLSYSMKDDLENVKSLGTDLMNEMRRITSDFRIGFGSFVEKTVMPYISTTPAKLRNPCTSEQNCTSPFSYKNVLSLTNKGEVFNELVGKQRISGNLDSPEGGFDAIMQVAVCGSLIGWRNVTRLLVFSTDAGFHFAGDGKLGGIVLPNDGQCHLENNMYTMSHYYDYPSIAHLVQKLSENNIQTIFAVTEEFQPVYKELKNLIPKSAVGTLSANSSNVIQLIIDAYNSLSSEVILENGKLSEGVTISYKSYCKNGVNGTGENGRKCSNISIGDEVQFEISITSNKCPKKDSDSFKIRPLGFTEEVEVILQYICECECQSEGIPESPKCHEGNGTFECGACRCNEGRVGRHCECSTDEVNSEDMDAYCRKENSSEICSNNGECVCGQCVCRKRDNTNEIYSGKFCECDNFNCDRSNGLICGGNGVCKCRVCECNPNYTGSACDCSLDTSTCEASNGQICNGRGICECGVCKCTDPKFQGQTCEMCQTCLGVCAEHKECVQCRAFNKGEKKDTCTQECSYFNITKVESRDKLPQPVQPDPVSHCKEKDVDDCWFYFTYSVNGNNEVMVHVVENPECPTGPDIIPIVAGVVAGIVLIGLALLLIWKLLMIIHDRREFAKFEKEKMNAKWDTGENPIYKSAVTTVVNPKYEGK

T1 sequence (P02702 20-234): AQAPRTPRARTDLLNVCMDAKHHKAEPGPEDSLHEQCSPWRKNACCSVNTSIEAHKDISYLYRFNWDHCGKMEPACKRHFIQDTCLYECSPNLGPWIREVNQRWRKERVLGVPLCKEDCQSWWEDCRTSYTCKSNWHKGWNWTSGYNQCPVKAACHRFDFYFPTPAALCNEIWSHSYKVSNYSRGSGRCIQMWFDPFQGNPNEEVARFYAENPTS
Sequence of αvβ5 (P06756 31-1048): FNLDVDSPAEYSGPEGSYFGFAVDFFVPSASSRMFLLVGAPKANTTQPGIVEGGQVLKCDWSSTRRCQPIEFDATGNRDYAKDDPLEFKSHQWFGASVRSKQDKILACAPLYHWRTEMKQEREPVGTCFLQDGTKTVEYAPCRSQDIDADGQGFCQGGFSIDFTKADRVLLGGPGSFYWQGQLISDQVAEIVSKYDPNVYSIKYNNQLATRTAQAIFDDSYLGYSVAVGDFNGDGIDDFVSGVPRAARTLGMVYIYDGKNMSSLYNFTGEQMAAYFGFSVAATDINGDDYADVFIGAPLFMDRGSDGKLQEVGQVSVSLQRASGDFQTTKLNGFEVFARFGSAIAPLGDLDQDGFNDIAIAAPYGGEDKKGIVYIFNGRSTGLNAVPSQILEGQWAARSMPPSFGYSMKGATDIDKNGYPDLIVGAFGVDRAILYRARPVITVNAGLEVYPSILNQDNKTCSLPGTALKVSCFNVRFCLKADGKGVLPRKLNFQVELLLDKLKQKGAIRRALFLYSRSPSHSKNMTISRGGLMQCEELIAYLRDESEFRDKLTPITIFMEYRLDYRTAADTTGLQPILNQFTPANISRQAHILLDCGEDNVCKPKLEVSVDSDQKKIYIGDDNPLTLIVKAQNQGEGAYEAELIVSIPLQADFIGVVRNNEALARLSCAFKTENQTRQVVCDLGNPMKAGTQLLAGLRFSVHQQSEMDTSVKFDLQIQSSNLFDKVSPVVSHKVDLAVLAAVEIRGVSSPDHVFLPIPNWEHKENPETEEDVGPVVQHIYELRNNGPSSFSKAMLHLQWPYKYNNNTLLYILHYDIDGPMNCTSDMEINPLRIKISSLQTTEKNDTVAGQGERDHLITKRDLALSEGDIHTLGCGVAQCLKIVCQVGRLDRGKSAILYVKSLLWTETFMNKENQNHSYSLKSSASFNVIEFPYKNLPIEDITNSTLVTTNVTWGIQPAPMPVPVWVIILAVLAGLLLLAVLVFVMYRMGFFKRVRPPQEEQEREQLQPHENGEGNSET
Sequence of αvβ5 (P18084 24-799): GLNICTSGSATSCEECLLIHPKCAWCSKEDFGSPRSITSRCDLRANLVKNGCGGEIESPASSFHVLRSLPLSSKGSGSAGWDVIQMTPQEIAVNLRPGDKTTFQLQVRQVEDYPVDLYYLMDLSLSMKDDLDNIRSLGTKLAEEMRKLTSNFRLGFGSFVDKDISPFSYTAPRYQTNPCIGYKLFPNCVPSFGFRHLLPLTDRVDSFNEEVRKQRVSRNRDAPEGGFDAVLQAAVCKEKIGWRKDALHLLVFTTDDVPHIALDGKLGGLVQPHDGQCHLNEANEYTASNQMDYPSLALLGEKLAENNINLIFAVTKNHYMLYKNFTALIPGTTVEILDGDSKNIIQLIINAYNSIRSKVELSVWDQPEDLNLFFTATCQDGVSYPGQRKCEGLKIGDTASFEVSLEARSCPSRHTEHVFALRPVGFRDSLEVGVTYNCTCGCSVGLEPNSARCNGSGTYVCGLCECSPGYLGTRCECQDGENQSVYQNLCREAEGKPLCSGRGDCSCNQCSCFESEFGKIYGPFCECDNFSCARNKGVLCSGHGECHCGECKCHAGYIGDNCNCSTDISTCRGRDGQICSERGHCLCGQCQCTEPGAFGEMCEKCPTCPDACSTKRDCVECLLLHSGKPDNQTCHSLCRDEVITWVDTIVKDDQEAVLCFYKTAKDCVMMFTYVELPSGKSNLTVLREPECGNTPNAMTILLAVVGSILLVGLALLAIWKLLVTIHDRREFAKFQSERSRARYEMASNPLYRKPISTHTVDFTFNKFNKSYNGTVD
T2 sequence (P08254 100-477): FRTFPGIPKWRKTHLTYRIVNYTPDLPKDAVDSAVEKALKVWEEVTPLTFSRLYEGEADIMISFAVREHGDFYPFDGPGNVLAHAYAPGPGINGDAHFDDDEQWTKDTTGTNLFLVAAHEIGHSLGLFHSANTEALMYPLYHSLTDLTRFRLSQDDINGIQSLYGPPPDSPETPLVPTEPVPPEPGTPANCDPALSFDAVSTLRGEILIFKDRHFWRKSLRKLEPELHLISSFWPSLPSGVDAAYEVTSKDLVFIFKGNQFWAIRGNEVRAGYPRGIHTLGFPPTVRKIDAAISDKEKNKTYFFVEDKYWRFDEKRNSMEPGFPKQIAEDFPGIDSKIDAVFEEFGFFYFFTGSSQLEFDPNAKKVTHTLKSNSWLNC

On to `Nc1nc2ncc(CNc3ccc(C(=O)N[C@@H](CCC(=O)O)C(=O)O)cc3)nc2c(=O)[nH]1` [Folic acid], for which the kon in assay [1] (flow 25 μl/min, read-out: Association rate ka) amounted to 1000 M⁻¹ s⁻¹. The koff in assay [1] (flow 25 μl/min, read-out: Dissociation rate kd) worked out at 0.0016 s⁻¹. For the same compound, the Kd in assay [1] (read-out: Affinity constant KD) is 1600 nM.

Turning to `CNC(=O)[C@H](Cc1c[nH]c2ccccc12)NC(=O)[C@@H](CC(=O)NO)CC(C)C` [Ilomastat], inhibition in assay [2] was half-maximal at 130 nM (IC50).

For cyclo(ARGD-Mamb) [XJ735], the “blocking of other integrins” value in assay [3] and in assay [4] was “does not block” each time.

By Kd is commonly meant the free concentration of one partner at which half of the binding sites on the other are occupied at equilibrium, for simple one-to-one binding. For orientation: IC50 means the concentration that inhibits the measured activity by half.
